Assay results published in patent publication US20230167132A1, “FORMS AND COMPOSITIONS OF INHIBITORS OF PLASMA KALLIKREIN” (Takeda Pharmaceutical Company Limited, priority 2020, published 2023).
“And” between values parts separate entries of the source, which are not always exact repeats. Identical values can stand only once.

Assays:
Format in all cases: physicochemical
[1] = Gravimetric vapour sorption (GVS) analysis; settings: for GVS mass increase: between 0 and 90% RH; for XRPD post GVS analysis: change of solid form after GVS; for GVS hygroscopicity: classification in words
[2] = Storage for one week at 40° C./75% RH and 25° C./97% RH, XRPD; settings: for stability under storage: summary of scaled-up solid forms, conditions not restated
[3] = Intrinsic Dissolution Rate (IDR), Sirius inForm; settings: for IDR Sector 1 average (pH 2.0) / IDR Sector 1 pH 2.0: pH 2.0, 37° C.; for IDR Sector 1 pH 2.0: individual runs; for sector 1 IDR compared to free base form Compound 1 Form 1 / other forms: pH 2.0, comparison in words; for XRPD Analysis Post Dissolution: solid form of disc after IDR analysis
Method: About 40 mg of the sample was compressed in a 6 mm disc recess, under 100 kg for 2 minutes, with greaseproof paper on the compression base, to form nondisintegrating discs. The discs were then plugged with a bung so that only one surface was exposed to the media during analysis and transferred to the Sirius inForm dissolution apparatus. Analysis was performed at 37° C. in 40 mL media (36 mL ISA water, 4 mL 0.1 M Acetate Phosphate Buffer). Dissolution data were collected over 4 pH sectors (pH 2.0, 5.5, 6.5, and 7.4) for a total of 2 hours—30 minutes per sector, with UV spectra collected every 30 seconds. A stir speed of 225 rpm was used with a 10 mm path length probe. The IDR was calculated based on the surface area of the 3/6/8 mm disc recess used (28.3 mm2 surface area). XRPD analysis was performed on all samples, both after compression of the material into the disc recess, and post dissolution analysis to observe any change in form. XRPD diffractograms were collected on the Bruker C2.

[4] = one week (7 days), scaled-up / characterised material
[5] = one week, material isolated from salt/cocrystal screening experiments
[6] = one week (7 days), scaled-up / characterised material, listed as Form 2

SMILES	GVS mass increase [1]	XRPD post GVS analysis [1]	Storage 25° C./97% RH, XRPD [2, 4]	Storage 40° C./75% RH, XRPD [2, 4]	Storage 40° C./75% RH, XRPD [2, 5]	stability under storage [2]	IDR Sector 1 average (pH 2.0) [3]	further results
O=C(NCc1ncn2ccc(Cl)c(F)c12)c1cn(Cc2cn3cc(C4CC4)ccc3n2)nn1.O=C(O)C[C@H](O)C(=O)O [Compound 3]	0.22%	no observed change	unchanged by XRPD	unchanged by XRPD	Slight changes	stable under storage	1791 μg/min/cm^2	GVS hygroscopicity ([1]; listed as Compound 3 Pattern 1): slightly hygroscopic; GVS hygroscopicity ([1]; listed as L-malate): reduced hygroscopicity; IDR Sector 1 pH 2.0 ([3]; listed as L-malate Pattern 1): 1569 μg/min/cm^2 and 2013 μg/min/cm^2; sector 1 IDR compared to free base form Compound 1 Form 1 / other forms ([3]; listed as Compound 3 Form 1): highest IDR; sector 1 IDR compared to free base form Compound 1 Form 1 / other forms ([3]; listed as Compound 3 Pattern 1): increased sector 1 IDR; XRPD Analysis Post Dissolution ([3]; listed as Compound 3 Pattern 1): additional peaks observed in XRPD; XRPD Analysis Post Dissolution ([3]; listed as L-malate Pattern 1): Additional peaks observed
O=C(NCc1ncn2ccc(Cl)c(F)c12)c1cn(Cc2cn3cc(C4CC4)ccc3n2)nn1 [Compound 6]	–	–	–	–	–	stable under storage	–	–
O=C(NCc1ncn2ccc(Cl)c(F)c12)c1cn(Cc2cn3cc(C4CC4)ccc3n2)nn1 [Compound 1 Form 3, N-((7-chloro-8-fluoroimidazo[1,5-a]pyridin-1-yl)methyl)-1-((6-cyclopropylimidazo[1,2-a]pyridin-2-yl)methyl)-1H-1,2,3-triazole-4-carboxamide]	0.5%	between 0 and 90% RH. Unchanged by XRPD post	Unchanged by XRPD	Unchanged by XRPD	–	–	–	GVS hygroscopicity [1]: Slightly hygroscopic
O=C(NCc1ncn2ccc(Cl)c(F)c12)c1cn(Cc2cn3cc(C4CC4)ccc3n2)nn1.O=C(O)C(O)C(O)C(=O)O [Compound 7]	3.4%	No observed change	unchanged by XRPD	unchanged by XRPD	unchanged	–	656.4 μg/min/cm^2	GVS hygroscopicity ([1]; listed as Compound 7 Pattern 1): hygroscopic; GVS hygroscopicity ([1]; listed as L-Tartrate Pattern 1): Poorly crystalline, hygroscopic; GVS hygroscopicity ([1]; listed as L-tartrate): hygroscopic; IDR Sector 1 pH 2.0 ([3]; listed as L-Tartrate Pattern 1): 647.0 μg/min/cm^2 and 665.7 μg/min/cm^2; XRPD Analysis Post Dissolution [3]: poorly crystalline post analysis
CS(=O)(=O)O.O=C(NCc1ncn2ccc(Cl)c(F)c12)c1cn(Cc2cn3cc(C4CC4)ccc3n2)nn1 [Mesylate salt—Pattern 2]	–	–	–	–	unchanged	–	–	–
O=C(NCc1ncn2ccc(Cl)c(F)c12)c1cn(Cc2cn3cc(C4CC4)ccc3n2)nn1.O=P(O)(O)O [Compound 5]	1.2%	no observed change	unchanged by XRPD	unchanged by XRPD	unchanged	stable under storage	404.1 μg/min/cm^2	GVS hygroscopicity ([1]; listed as Compound 5 Pattern 1): slightly hygroscopic; GVS hygroscopicity ([1]; listed as phosphate): reduced hygroscopicity; IDR Sector 1 pH 2.0 ([3]; listed as Phosphate Pattern 1): 364.7 μg/min/cm^2 and 443.4 μg/min/cm^2; sector 1 IDR compared to free base form Compound 1 Form 1 / other forms [3]: increased sector 1 IDR; XRPD Analysis Post Dissolution ([3]; listed as Phosphate Pattern 1): Partial conversion to Compound 1
CS(=O)(=O)O.O=C(NCc1ncn2ccc(Cl)c(F)c12)c1cn(Cc2cn3cc(C4CC4)ccc3n2)nn1 [Mesylate salt—Pattern 3]	–	–	–	–	unchanged	–	–	–
CS(=O)(=O)O.O=C(NCc1ncn2ccc(Cl)c(F)c12)c1cn(Cc2cn3cc(C4CC4)ccc3n2)nn1 [Mesylate salt—Pattern 1]	–	–	–	–	changes to its XRPD pattern with peaks corresponding to Compound 1 Form 1 being present	–	–	–
O=C(NCc1ncn2ccc(Cl)c(F)c12)c1cn(Cc2cn3cc(C4CC4)ccc3n2)nn1.O=C(O)CCC(=O)O [Compound 4]	0.16%	no observed change	unchanged by XRPD	unchanged by XRPD	unchanged	stable under storage	255.5 μg/min/cm^2	GVS hygroscopicity ([1]; listed as Compound 4 Pattern 1): non-hygroscopic; GVS hygroscopicity ([1]; listed as succinate): reduced hygroscopicity; IDR Sector 1 pH 2.0 ([3]; listed as Succinate Pattern 1): 270.8 μg/min/cm^2 and 240.1 μg/min/cm^2; sector 1 IDR compared to free base form Compound 1 Form 1 / other forms [3]: increased sector 1 IDR; XRPD Analysis Post Dissolution ([3]; listed as Compound 4 Pattern 1): additional peaks observed in XRPD; XRPD Analysis Post Dissolution ([3]; listed as Succinate Pattern 1): Additional peaks observed
O=C(NCc1ncn2ccc(Cl)c(F)c12)c1cn(Cc2cn3cc(C4CC4)ccc3n2)nn1 [Amorphous form of Compound 1, N-((7-chloro-8-fluoroimidazo[1,5-a]pyridin-1-yl)methyl)-1-((6-cyclopropylimidazo[1,2-a]pyridin-2-yl)methyl)-1H-1,2,3-triazole-4-carboxamide]	–	convert to Form 1	convert to Form 1	convert to Form 1	–	–	–	form conversion upon heating ([2]; heating to 150° C.): convert to Form 1
O=C(NCc1ncn2ccc(Cl)c(F)c12)c1cn(Cc2cn3cc(C4CC4)ccc3n2)nn1.O=C(O)/C=C/C(=O)O [Compound 9]	0.6%	no observed change	unchanged by XRPD	unchanged by XRPD	unchanged	stable under storage	78.3 μg/min/cm^2	GVS hygroscopicity ([1]; listed as Compound 9 Pattern 1): slightly hygroscopic; GVS hygroscopicity ([1]; listed as fumarate): reduced hygroscopicity; IDR Sector 1 pH 2.0 ([3]; listed as Fumarate Pattern 1): 76.8 μg/min/cm^2 and 79.8 μg/min/cm^2; XRPD Analysis Post Dissolution ([3]; listed as Compound 9 Pattern 1): Additional peaks observed in XRPD; XRPD Analysis Post Dissolution ([3]; listed as Fumarate Pattern 1): Additional peaks observed
O=C(NCc1ncn2ccc(Cl)c(F)c12)c1cn(Cc2cn3cc(C4CC4)ccc3n2)nn1 [Compound 1 Form 2, N-((7-chloro-8-fluoroimidazo[1,5-a]pyridin-1-yl)methyl)-1-((6-cyclopropylimidazo[1,2-a]pyridin-2-yl)methyl)-1H-1,2,3-triazole-4-carboxamide]	–	decrease. Mixture of Freebase Patterns 2 & 3	Mixture of Compound 1 - Form 1, Compound 1 -	Free base, Compound 1 - Form 1	–	–	290.8 μg/min/cm^2	GVS increase in mass ([1]; between 80 and 90% RH): 4%; XRPD post GVS analysis ([1]; listed as Form 2): convert to Form 1; GVS hygroscopicity [1]: Hygroscopic; Storage 25° C./97% RH, XRPD [2, 6]: Peaks corresponding to a suspected hydrated phase; Storage 40° C./75% RH, XRPD [2, 6]: convert to Form 1; XRPD Analysis Post Dissolution [3]: Conversion to Compound 1 - Form 1
O=C(NCc1ncn2ccc(Cl)c(F)c12)c1cn(Cc2cn3cc(C4CC4)ccc3n2)nn1 [Compound 11]	–	–	–	–	unchanged by XRPD	–	–	–
